Reference: patent publication US20160177259A1, “[…]” (Evonik Degussa GmbH, priority 2014, published 2016)

Test system: Clostridium ljungdahlii
Assay: Autotrophic production in carbonate buffer on synthesis gas with 0.4 g/l or no L-cysteine HCl (Example 2)
Type: cell-based
Settings: for Acetate (NMR) / Ethanol (NMR) / OD600 / Δp: reactor 2, 0.4 g/L L-Cysteine-HCl
Description: For the production, anaerobic carbonate buffer (adjusted with KOH 1.87 g/L) was used.
Identical autotrophic productions were carried out in 500 mL septum bottles with 100 mL of carbonate carried out in a shaking water bath shaker (open Innova 3100 by New Brunswick Scientific) at 100 min^−1. The productions were carried out at 37° C. with manual control of the pH. Once the pH dropped below 5.5, KOH was metered from a stock solution of 187 g/L. In the present experiments the pH in both reactors at points in time of 50.3 h and 73.3 h were taken and corrected by the addition of each 1.87 g/L KOH manually.
The reactors were inoculated with a synthesis gas mixture of 67% H2 and 33% CO2 pressurized with an overpressure of 0.8 bar. To replenish the consumed gas, the gas atmosphere was completely replaced once a day in the headspace of the reactors and again pressured to 0.8 bars.
The reactor 1 contained a concentration of L-cysteine HCl of 0 g/L, and reactor 2 a concentration of L-cysteine HCl of 0.4 g/L.
The reactors started with autotrophic cells at an OD of 0.2. The pre-culture was carried out continuously in a 1 L bottle with 500 ml of complex medium. The complex medium comprised of 1 g/l NH4Cl, 0.1 g/l KCl, 0.2 g/l MgSO4×7 H2O, 0.8 g/l NaCl, 0.1 g/l KH2PO4, 20 mg/l CaCl2×2 H2O, 20 g/l MES, 1 g/l yeast extract, 0.4 g/L L-cysteine HCl, 20 mg/l nitrilotriacetic acid, 10 mg/l MnSO4 H2O x, 8 mg/l (NH4)2Fe(SO4)2×6 H2O, 2 mg/L CoCl2×6 H2O, 2 mg/l ZnSO4×7 H2O, 0.2 mg/l CuCl2×2H2O, 0.2 mg/l Na2MoO4×2 H2O, 0.2 mg/l NiCl2×6 H2O, 0.2 mg/l Na2SeO4, 0.2 mg/l Na2WO4×2 H2O, 20 μg/l d-biotin, 20 μg/L folic acid, 100 μg/l pyridoxine HCl, 50 μg/l thiamine-HCl×H2O. 50 μg/l of riboflavin, 50 μg/l nicotinic acid, 50 μg/l Ca-pantothenate, 1 μg/L of vitamin B12, 50 μg/l p-aminobenzoate, 50 μg/l lipoic acid. The gassing of the culture with synthesis gas (67% H2, 33% CO2) was carried out continuously at a flow rate of 3 l/h over a filter with pore size of 10 microns. The cells were in late log phase of growth at an OD of 0.23 anaerobically centrifuged (4500 rpm, 4300 g, 20° C., 10 min). The supernatant was discarded and the cell pellet resuspended in 10 ml carbonate buffer. The prepared cells were then used to inoculate the actual experiments.
When sampling each 5 ml sample was removed for determination of 0D600, pH and the product range. The determination of the product concentration was performed by quantitative ^1H-NMR spectroscopy. As an internal quantification standard sodium trimethylsilylpropionate (T(M)SP) was used.

SMILES: Cl.N[C@@H](CS)C(=O)O [L-Cysteine-HCl, L-cysteine hydrochloride]
- concentrations of ethanol and acetate formed (0.4 g/L compared with no L-cysteine-HCl, end of 98.8 h reaction time): higher
- Acetate (NMR) (0.0 h): 15 mg/L
- Ethanol (NMR) (0.0 h): 5 mg/L
- OD600 (0.0 h): 0.18
- Acetate (NMR) (26.0 h): 1714 mg/L
- Ethanol (NMR) (26.0 h): 21 mg/L
- OD600 (26.0 h): 0.18
- Δp (26.0 h): 0.6 bar
- Acetate (NMR) (50.3 h): 2471 mg/L
- Ethanol (NMR) (50.3 h): 91 mg/L
- OD600 (50.3 h): 0.19
- Δp (50.3 h): 0.5 bar
- OD600 (74.3 h): 0.18
- Δp (74.3 h): 0.4 bar
- Acetate (NMR) (98.8 h): 3366 mg/L
- Ethanol (NMR) (98.8 h): 84 mg/L
- OD600 (98.8 h): 0.18
- Δp (98.8 h): 0.2 bar
- gas consumption (reactor 2 with 0.4 g/L compared with 0 g/L L-cysteine-HCl, over 98.8 h): higher
